Test results from PubChem BioAssay (NCI).
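Compound exposure: 48 hours, 5 concentrations, 96-well plates. GI50: concentration for 50% inhibition of growth. TGI: concentration producing complete growth inhibition.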

Tests used:
Test in all cases: DTP human tumour cell line panel, 48 h
RPMI-8226 leukemia = test system: RPMI-8226 leukemia
UACC-257 melanoma = test system: UACC-257 melanoma
OVCAR-5 ovarian = test system: OVCAR-5 ovarian
MDA-MB-231 breast = test system: MDA-MB-231 breast
UACC-62 melanoma = test system: UACC-62 melanoma
HS 578T breast = test system: HS 578T breast
ACHN renal = test system: ACHN renal
TK-10 renal = test system: TK-10 renal
MOLT-4 leukemia = test system: MOLT-4 leukemia
HCT-116 colon = test system: HCT-116 colon
RXF 393 renal = test system: RXF 393 renal
M14 melanoma = test system: M14 melanoma
SK-MEL-5 melanoma = test system: SK-MEL-5 melanoma
PC-3 prostate = test system: PC-3 prostate
786-0 renal = test system: 786-0 renal
SK-MEL-28 melanoma = test system: SK-MEL-28 melanoma
UO-31 renal = test system: UO-31 renal
NCI-H226 lung = test system: NCI-H226 lung
SNB-19 CNS = test system: SNB-19 CNS
HCT-15 colon = test system: HCT-15 colon
OVCAR-3 ovarian = test system: OVCAR-3 ovarian
NCI/ADR-RES ovarian = test system: NCI/ADR-RES ovarian
SW-620 colon = test system: SW-620 colon
SNB-75 CNS = test system: SNB-75 CNS
A498 renal = test system: A498 renal
HOP-92 NSCLC = test system: HOP-92 NSCLC
NCI-H522 lung = test system: NCI-H522 lung
SR leukemia = test system: SR leukemia
SN12C renal = test system: SN12C renal
SF-295 CNS = test system: SF-295 CNS
A549 NSCLC = test system: A549 NSCLC
T-47D breast = test system: T-47D breast
IGROV1 ovarian = test system: IGROV1 ovarian
DU-145 prostate = test system: DU-145 prostate
EKVX NSCLC = test system: EKVX NSCLC
U251 CNS = test system: U251 CNS
SF-539 CNS = test system: SF-539 CNS
LOX IMVI melanoma = test system: LOX IMVI melanoma
SK-OV-3 ovarian = test system: SK-OV-3 ovarian
MCF7 breast = test system: MCF7 breast
MDA-MB-435 = test system: MDA-MB-435
HL-60(TB) leukemia = test system: HL-60(TB) leukemia
MALME-3M melanoma = test system: MALME-3M melanoma
KM12 colon = test system: KM12 colon
NCI-H23 lung = test system: NCI-H23 lung
CCRF-CEM leukemia = test system: CCRF-CEM leukemia
COLO 205 colon = test system: COLO 205 colon
HOP-62 NSCLC = test system: HOP-62 NSCLC
HT29 colon = test system: HT29 colon
SF-268 CNS = test system: SF-268 CNS
OVCAR-4 ovarian = test system: OVCAR-4 ovarian
SK-MEL-2 melanoma = test system: SK-MEL-2 melanoma
NCI-H460 lung = test system: NCI-H460 lung
HCC-2998 colon = test system: HCC-2998 colon
K-562 leukemia = test system: K-562 leukemia
CAKI-1 renal = test system: CAKI-1 renal
BT-549 breast = test system: BT-549 breast
OVCAR-8 ovarian = test system: OVCAR-8 ovarian

COc1ccc2c(c1)C(=O)c1c-2n(CCCCl)c(=O)c2cc(OC)c(OC)cc12
GI50 (RPMI-8226 leukemia): 2.14 µM
TGI (RPMI-8226 leukemia): 14.5 µM
GI50 (UACC-257 melanoma): 45.3 µM
TGI (UACC-257 melanoma): > 100 µM
GI50 (OVCAR-5 ovarian): > 100 µM
TGI (OVCAR-5 ovarian): > 100 µM
GI50 (MDA-MB-231 breast): > 100 µM
TGI (MDA-MB-231 breast): > 100 µM
GI50 (UACC-62 melanoma): 4.6 µM
TGI (UACC-62 melanoma): > 100 µM
GI50 (HS 578T breast): > 77.2 µM
TGI (HS 578T breast): > 100 µM
GI50 (ACHN renal): 3.28 µM
TGI (ACHN renal): 14 µM
GI50 (TK-10 renal): > 70.2 µM
TGI (TK-10 renal): > 100 µM
GI50 (MOLT-4 leukemia): 2.55 µM
TGI (MOLT-4 leukemia): 6.29 µM
GI50 (HCT-116 colon): 8.68 µM
TGI (HCT-116 colon): > 100 µM
TGI (RXF 393 renal): > 21.1 µM
GI50 (M14 melanoma): 6.24 µM
TGI (M14 melanoma): > 100 µM
GI50 (SK-MEL-5 melanoma): 9.2 µM
TGI (SK-MEL-5 melanoma): 30.1 µM
GI50 (PC-3 prostate): 41.5 µM
TGI (PC-3 prostate): > 100 µM
GI50 (786-0 renal): 5.41 µM
TGI (786-0 renal): 31.7 µM
GI50 (SK-MEL-28 melanoma): > 79.4 µM
TGI (SK-MEL-28 melanoma): > 100 µM
GI50 (UO-31 renal): 8.4 µM
TGI (UO-31 renal): > 100 µM
GI50 (NCI-H226 lung): > 79.1 µM
TGI (NCI-H226 lung): > 100 µM
GI50 (SNB-19 CNS): 13.2 µM
TGI (SNB-19 CNS): > 100 µM
GI50 (HCT-15 colon): > 96.4 µM
TGI (HCT-15 colon): > 100 µM
GI50 (OVCAR-3 ovarian): 82.3 µM
TGI (OVCAR-3 ovarian): > 100 µM
GI50 (NCI/ADR-RES ovarian): 11.6 µM
TGI (NCI/ADR-RES ovarian): > 100 µM
GI50 (SW-620 colon): 19.6 µM
TGI (SW-620 colon): > 100 µM
GI50 (SNB-75 CNS): > 24.7 µM
TGI (SNB-75 CNS): > 75.5 µM
GI50 (A498 renal): > 52.5 µM
TGI (A498 renal): > 100 µM
GI50 (HOP-92 NSCLC): > 32.6 µM
TGI (HOP-92 NSCLC): > 86.4 µM
GI50 (NCI-H522 lung): 9.12 µM
TGI (NCI-H522 lung): > 95 µM
GI50 (SR leukemia): 1.39 µM
TGI (SR leukemia): 6.62 µM
GI50 (SN12C renal): 6.67 µM
TGI (SN12C renal): > 100 µM
GI50 (SF-295 CNS): 3.99 µM
TGI (SF-295 CNS): > 100 µM
GI50 (A549 NSCLC): 12 µM
TGI (A549 NSCLC): > 100 µM
GI50 (T-47D breast): 13.5 µM
TGI (T-47D breast): > 100 µM
GI50 (IGROV1 ovarian): 17.1 µM
TGI (IGROV1 ovarian): > 100 µM
GI50 (DU-145 prostate): 4.01 µM
TGI (DU-145 prostate): > 48.1 µM
GI50 (EKVX NSCLC): > 100 µM
TGI (EKVX NSCLC): > 100 µM
GI50 (U251 CNS): 5.95 µM
TGI (U251 CNS): > 100 µM
GI50 (SF-539 CNS): 6.29 µM
TGI (SF-539 CNS): > 57.3 µM
GI50 (LOX IMVI melanoma): 6.87 µM
TGI (LOX IMVI melanoma): > 61.9 µM
GI50 (SK-OV-3 ovarian): 28.6 µM
TGI (SK-OV-3 ovarian): > 100 µM
GI50 (MCF7 breast): 6.27 µM
TGI (MCF7 breast): > 100 µM
GI50 (MDA-MB-435): 42.5 µM
TGI (MDA-MB-435): > 100 µM
GI50 (HL-60(TB) leukemia): 4.11 µM
TGI (HL-60(TB) leukemia): 18 µM
GI50 (MALME-3M melanoma): 18.6 µM
TGI (MALME-3M melanoma): > 96.1 µM
GI50 (KM12 colon): > 54.2 µM
TGI (KM12 colon): > 100 µM
GI50 (NCI-H23 lung): 15.5 µM
TGI (NCI-H23 lung): > 100 µM
GI50 (CCRF-CEM leukemia): 2.02 µM
GI50 (COLO 205 colon): > 100 µM
TGI (COLO 205 colon): > 100 µM
GI50 (HOP-62 NSCLC): 5.13 µM
TGI (HOP-62 NSCLC): > 51.3 µM
GI50 (HT29 colon): > 52.1 µM
TGI (HT29 colon): > 100 µM
GI50 (SF-268 CNS): 8.63 µM
TGI (SF-268 CNS): > 100 µM
GI50 (OVCAR-4 ovarian): > 91.7 µM
TGI (OVCAR-4 ovarian): > 100 µM
GI50 (SK-MEL-2 melanoma): > 100 µM
TGI (SK-MEL-2 melanoma): > 100 µM
GI50 (NCI-H460 lung): 2.4 µM
TGI (NCI-H460 lung): > 100 µM
GI50 (HCC-2998 colon): 17.4 µM
TGI (HCC-2998 colon): > 95.9 µM
GI50 (K-562 leukemia): 32.4 µM
TGI (K-562 leukemia): > 100 µM
GI50 (CAKI-1 renal): 6.47 µM
TGI (CAKI-1 renal): > 24.4 µM
GI50 (BT-549 breast): > 100 µM
TGI (BT-549 breast): > 100 µM
GI50 (OVCAR-8 ovarian): 53.4 µM
TGI (OVCAR-8 ovarian): > 100 µM
